From US7459567B2, “Substituted thienyl and furyl acylguanidines and methods of their use as beta-secretase modulators” (Wyeth, priority 2005, dated 2008)

Columns and labels:
human BACE1 = human BACE1 (Homo sapiens, UniProt P56817); assay: Fluorescent kinetic assay, BACE1 inhibition (FRET peptide substrate cleavage); type: biochemical; settings: 10 nM BACE1, 25 μM substrate WABC-6, 50 mM Na-Acetate pH 4.5, room temperature
human BACE1, sequence (P56817 46-501): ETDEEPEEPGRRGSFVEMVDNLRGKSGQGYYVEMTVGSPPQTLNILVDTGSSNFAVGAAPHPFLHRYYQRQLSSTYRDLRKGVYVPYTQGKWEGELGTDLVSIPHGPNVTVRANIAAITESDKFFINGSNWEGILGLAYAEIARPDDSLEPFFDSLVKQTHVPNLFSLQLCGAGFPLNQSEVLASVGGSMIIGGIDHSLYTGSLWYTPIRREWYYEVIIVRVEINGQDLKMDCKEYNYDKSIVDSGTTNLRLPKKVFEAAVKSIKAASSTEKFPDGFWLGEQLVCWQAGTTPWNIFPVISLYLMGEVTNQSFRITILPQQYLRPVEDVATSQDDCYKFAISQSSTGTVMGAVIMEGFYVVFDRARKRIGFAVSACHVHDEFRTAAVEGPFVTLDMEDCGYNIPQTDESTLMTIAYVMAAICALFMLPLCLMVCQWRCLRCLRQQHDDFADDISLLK

Structure (SMILES) | melting point | IC50 (human BACE1)
CCCOc1ccc(-c2scc(-c3ccccc3Cl)c2CC(=O)N=C(N)N)cc1 [Example 1, N″-{[4-(2-Chlorophenyl)-2-(4-propoxyphenyl)thien-3-yl]acetyl}guanidine] | 98 to 99 °C | –
NC(N)=NC(=O)Cc1c(-c2ccccc2)csc1-c1ccccc1 [Example 2, N″-[(2,4-Diphenylthien-3-yl)acetyl]guanidine] | 204 to 205.5 °C | –
NC(N)=NC(=O)Cc1c(-c2ccccc2)csc1-c1ccc(Oc2ccccc2)cc1 [Example 3, N″-{[2-(4-Phenoxyphenyl)-4-phenylthien-3-yl]acetyl}guanidine] | 116 to 118 °C | 2060 nM
NC(N)=NC(=O)Cc1c(-c2ccccc2Cl)csc1-c1ccc(Oc2ccccc2)cc1 [Example 4, N″-{[4-(2-Chlorophenyl)-2-(4-phenoxyphenyl)thien-3-yl]acetyl}guanidine] | 76 to 78 °C | 1600 nM
CCCOc1ccc(-c2csc(-c3ccccc3Cl)c2CC(=O)N=C(N)N)cc1 [Example 5, N″-{[2-(2-Chlorophenyl)-4-(4-propoxyphenyl)thien-3-yl]acetyl}guanidine] | 111 to 113 °C | –
CCCOc1ccc(-c2scc(-c3ccccc3OC(F)(F)F)c2CC(=O)N=C(N)N)cc1 [Example 6, N″-({2-(4-Propoxyphenyl)-4-[2-(trifluoromethoxy)phenyl]thien-3-yl}acetyl)guanidine] | 90 to 92 °C | 1600 nM
CCCOc1ccc(-c2scc(-c3ccccc3)c2CC(=O)NC(=N)N)cc1 [Example 7, N-{[4-Phenyl-2-(4-propoxyphenyl)thien-3-yl]acetyl}guanidine] | 94 to 95 °C | –
CCCOc1ccc(-c2csc(-c3ccccc3)c2CC(=O)N=C(N)N)cc1 [Example 8, N″-{[2-Phenyl-4-(4-propoxyphenyl)thien-3-yl]acetyl}guanidine] | 131 to 132 °C | –
CC(=O)c1ccc(Oc2ccc(-c3scc(-c4ccccc4Cl)c3CC(=O)N=C(N)N)cc2)cc1 [Example 9, N″-{[2-[4-(4-Acetylphenoxy)phenyl]-4-(2-chlorophenyl)thien-3-yl]acetyl}guanidine] | 117 to 118 °C | –
CCC(=O)c1ccc(Oc2ccc(-c3scc(-c4ccccc4Cl)c3CC(=O)N=C(N)N)cc2)cc1 [Example 10, N″-({4-(2-Chlorophenyl)-2-[4-(4-propionylphenoxy)phenyl]thien-3-yl}acetyl)guanidine] | 123 to 124 °C | 1730 nM
NC(N)=NC(=O)Cc1c(-c2ccccc2Cl)csc1-c1ccc(OCCc2cn[nH]c2)cc1 [Example 11, 2-(4-(2-Chlorophenyl)-2-{4-[2-(1H-pyrazol-4-yl)ethoxy]phenyl}-thien-3-yl)-N-(diaminomethylene)acetamide] | 71 to 72 °C | –
CCCOc1ccc(-c2scc(-c3ccccc3Cl)c2CC(=O)NC(=N)NCCCO)cc1 [Example 12, 2-[4-(2-Chlorophenyl)-2-(4-propoxyphenyl)thien-3-yl]-N-[[(3-hydroxypropyl)amino](imino)methyl]acetamide] | 49 to 50 °C | –
CCC(CC)NC(=O)c1ccc(-c2scc(-c3ccccc3Cl)c2CC(=O)NC(=N)NCCCO)cc1 [Example 13, 4-[4-(2-Chlorophenyl)-3-(2-{[[(3-hydroxypropyl)amino](imino)-methyl]amino}-2-oxoethyl)thien-2-yl]-N-(1-ethylpropyl)benzamide] | 109 to 110 °C | –
N=C(NCCCO)NC(=O)Cc1c(-c2ccccc2Cl)csc1-c1ccc(C(=O)NCC(F)(F)F)cc1 [Example 14, 4-[4-(2-Chlorophenyl)-3-(2-{[[(3-hydroxypropyl)amino](imino)-methyl]amino}-2-oxoethyl)thien-2-yl]-N-(2,2,2-trifluoroethyl)benzamide] | 103 to 105 °C | –
CCCNC(=O)c1ccc(-c2scc(-c3ccccc3Cl)c2CC(=O)NC(=N)NCCCO)cc1 [Example 15, 4-[4-(2-Chlorophenyl)-3-(2-{[[(3-hydroxypropyl)amino](imino)-methyl]amino}-2-oxoethyl)thien-2-yl]-N-propylbenzamide] | 116 to 118 °C | –
N=C(NCCCO)NC(=O)Cc1c(-c2ccccc2Cl)csc1-c1ccc(C(=O)NCC2CC2)cc1 [Example 16, 4-[4-(2-Chlorophenyl)-3-(2-{[[(3-hydroxypropyl)amino](imino)-methyl]amino}-2-oxoethyl)thien-2-yl]-N-(cyclopropylmethyl)benzamide] | 100 to 101 °C | –
CCCCNC(=O)c1ccc(-c2scc(-c3ccccc3Cl)c2CC(=O)NC(=N)NCCCO)cc1 [Example 17, N-Butyl-4-[4-(2-chlorophenyl)-3-(2-{[[(3-hydroxypropyl)amino]-(imino)methyl]amino}-2-oxoethyl)thien-2-yl]benzamide] | 92 to 95 °C | –
CCCOc1ccc(-c2scc(-c3ccccc3Cl)c2CC(=O)NC(=N)NCCCO)cc1C [Example 18, 2-[4-(2-Chlorophenyl)-2-(3-methyl-4-propoxyphenyl)thien-3-yl]-N-[[(3-hydroxypropyl)amino](imino)methyl]acetamide] | 73 to 76 °C | –
CCCOc1ccc(-c2scc(-c3ccccc3Cl)c2CC(=O)NC(=N)NCCCO)c(C)c1 [Example 19, 2-[4-(2-Chlorophenyl)-2-(2-methyl-4-propoxyphenyl)thien-3-yl]-N-[[(3-hydroxypropyl)amino](imino)methyl]acetamide] | 103 to 105.5 °C | –
